According to patent US5306808A, “Peptide derivatives having vasodilating activity” (Takeda Chemical Industries, Ltd., priority 1991, dated 1994):
Where a SMILES comes first, the peptide text is derived from it. Bridges are numbered along the chain shown (N, C = ends).

Assays:
porcine coronary artery = type: cell-based; conditions: for Constrictor activity (Relative potency): ET-1 = 100; for Maximum Constriction (% 60 mM KCl): normalized to constriction response to 60 mM KCl
[1] = system: porcine coronary smooth muscles (constriction due to endothelin-1); test: Assay of constriction suppressing activity to porcine coronary smooth muscles; type: cell-based; conditions: Sample: constriction due to 10^-9 M ET-1 in the presence of 10^-5 sample; Control: constriction due to 10^-9 M ET-1; formula shown only as drawing 9
Procedure: Its tension was detected by a force displacement transducer UL-10GR (Minebea), and recorded by a polygraph (NEC Sanei). […] A tension of 1.25 to 1.5 g was applied to each of the strips, followed by equilibration for 1.5 hours. 60 mM KCl was repeatedly applied thereto at intervals of 30 minutes until the constriction response became constant. After additional equilibration for 1.5 hours, a sample for assay was given. The constriction of the strips was normalized by the constriction response of the individual strips to 60 mM KCl and statistically processed.

endothelin receptor = test: Assay of affinity for receptor (I125-ET-1 binding to porcine myocardial membrane fraction); conditions: ET-1 = 100

| Receptor binding activity (Relative potency) (endothelin receptor) | Compound | Constrictor activity (Relative potency) (porcine coronary artery) | Maximum Constriction (% 60 mM KCl) (porcine coronary artery) | Suppressing activity to ET-1 [1] |
| --- | --- | --- | --- | --- |
| 0.45 | CC[C@H](C)[C@H](NC(=O)[C@H](CC(=O)O)NC(=O)[C@H](CC(C)C)NC(=O)[C@H](Cc1c[nH]cn1)NC(=O)[C@@H]1CSSC[C@H](N)C(=O)N[C@@H](CO)C(=O)N[C@@H](Cc2ccccc2)C(=O)N[C@@H](CO)C(=O)N[C@@H](CO)C(=O)N[C@@H](CC(C)C)C(=O)N[C@@H](CCSC)C(=O)N[C@@H](CC(=O)O)C(=O)N[C@@H](CCCCN)C(=O)N[C@@H](CCC(=O)O)C(=O)N[C@@H](Cc2ccccc2)C(=O)N[C@@H](C(C)C)C(=O)N[C@@H](Cc2ccc(O)cc2)C(=O)N[C@@H](Cc2ccccc2)C(=O)N1)C(=O)N[C@H](C(=O)N[C@@H](Cc1c[nH]c2ccccc12)C(=O)O)[C@@H](C)CC [Example 1, [Phe^3,11]-ET-1] (H-CSFSSLMDKEFVYFCHLDIIW-OH; disulfide 1-15) | < 0.3 | 9 % 60 mM KCl | 77 |
| 0.5 | CC[C@H](C)[C@H](NC(=O)[C@H](CC(=O)O)NC(=O)[C@H](CC(C)C)NC(=O)[C@H](Cc1c[nH]cn1)NC(=O)[C@@H]1CSSC[C@H](N)C(=O)N[C@@H](CO)C(=O)N[C@@H](Cc2ccccc2)C(=O)N[C@@H](CO)C(=O)N[C@@H](CO)C(=O)N[C@@H](CC(C)C)C(=O)N[C@@H](CCSC)C(=O)N[C@@H](CC(=O)O)C(=O)N[C@@H](CCCCN)C(=O)N[C@@H](CCC(=O)O)C(=O)N[C@@H](C)C(=O)N[C@@H](C(C)C)C(=O)N[C@@H](Cc2ccc(O)cc2)C(=O)N[C@@H](Cc2ccccc2)C(=O)N1)C(=O)N[C@H](C(=O)N[C@@H](Cc1c[nH]c2ccccc12)C(=O)O)[C@@H](C)CC [Example 2, [Phe^3, Ala^11]-ET-1] (H-CSFSSLMDKEAVYFCHLDIIW-OH; disulfide 1-15) | < 0.1 | 10 % 60 mM KCl | 87 |
| 0.1 | CC[C@H](C)[C@H](NC(=O)[C@H](CC(=O)O)NC(=O)[C@H](CC(C)C)NC(=O)[C@H](Cc1c[nH]cn1)NC(=O)[C@@H]1CSSC[C@H](N)C(=O)N[C@@H](CO)C(=O)N[C@@H](C)C(=O)N[C@@H](CO)C(=O)N[C@@H](CO)C(=O)N[C@@H](CC(C)C)C(=O)N[C@@H](CCSC)C(=O)N[C@@H](CC(=O)O)C(=O)N[C@@H](CCCCN)C(=O)N[C@@H](CCC(=O)O)C(=O)N[C@@H](Cc2ccccc2)C(=O)N[C@@H](C(C)C)C(=O)N[C@@H](Cc2ccc(O)cc2)C(=O)N[C@@H](Cc2ccccc2)C(=O)N1)C(=O)N[C@H](C(=O)N[C@@H](Cc1c[nH]c2ccccc12)C(=O)O)[C@@H](C)CC [Example 3, [Ala^3, Phe^11]-ET-1] (H-CSASSLMDKEFVYFCHLDIIW-OH; disulfide 1-15) | < 0.1 | 10 % 60 mM KCl | 56 |
